Values joined by “and” are separate entries in the source; they are usually repeats but may differ in a detail not shown here. Identical values can stand only once.
Columns and labels:
mice [1] = details: subjects with diet-induced obesity; Kumar et al. 2008; Gao et al. 2014, 2015; cited from earlier work
[2] = test system: male C57BL/6J (B6) mice, aged 18 months; test: Aversive T-maze retention after exogenous adropin^34-76 treatment; type: in vivo, mouse; parameters: key to T-maze Retention, Difference between means (Adropin vs. Vehicle): difference in trials to criterion, adropin minus vehicle; key to T-maze Retention: number of trials to reach criterion (5 avoidances in 6 trials)
Description: (§1) Memory retention and acquisition were assessed using an aversive T-maze and novel objective recognition, as previously described (Farr et al., (2016) J Alzheimers Dis.; 54(4):1339-1348). Briefly, the T-maze consists of a black plastic alley with a start box at one end and two goal boxes at the other. An electrifiable floor of stainless steel rods run throughout the maze to deliver a foot-shock using a scrambled grid floor shocker (Model E13-08, Coulbourn Instruments, Whitehall, PA). Mice are not permitted to explore the maze prior to training. A block of training trials begins when mice are placed in the start box. The guillotine door is raised and a cue buzzer sounded simultaneously (doorbell type, at 55 dB); 5s later a mild aversive foot-shock is applied with an intensity of 0.35 mA. The arm of the maze entered on the first trial is designated “incorrect” and the mild foot-shock continued until the mouse enters the other goal box, which in all subsequent trials is designated “correct” for each mouse. Mice are trained until they made one active avoidance, with an inter-trial interval of 30-35s. The number of trials to make one active avoidance is the measure of acquisition. Retention is tested 7d later, with training continued until the criterion of making five active avoidances in six consecutive trials is achieved. The number of trials needed to reach this criterion is the measure of retention(Butler et al., (2012) The Journal of clinical endocrinology and metabolism.; 97(10):3783-3791; Wong et al., (2014) The Journal of biological chemistry.; 289(37):25976-25986).
(§2) To examine the effects of […] adropin on a subject's cognitive ability, 34 male C57BL/6J (B6) mice, aged 18 months, were treated with exogenous adropin^34-76. Mice were purchased from The Jackson Laboratory (Bar Harbor, ME). After acclimation for 1 month, mice were separated into two weight matched groups of 15 mice: Group 1 adropin^34-76 treatment group and Group 2 saline vehicle control.
(§3) The mice were administered a single intraperitoneal injection (volume 100 μl) each morning (0900h) for 4 weeks. Group 1 was administered adropin^34-76 at a dose of 90 nmol/kg/day. Group 2 was administered saline. The peptide was purchased from Neoscientific Inc. Behavioral testing began after 2 weeks of injections. Injections continued though testing until 4 weeks.
(FIG. 12, Table 3) Mice were retested in the maze after 7 days and Adropin treated mice retained learned memories and complete the maze in lets time.

[3] = Body weight and deaths during 4-week intraperitoneal treatment; type: in vivo; details: group 1, 90 nmol/kg/day intraperitoneal
Description: as §2, §3

[4] = test system: male C57BL/6J (B6) mice, aged 18 months; test: Novel Object Recognition test after exogenous adropin^34-76 treatment; type: in vivo, mouse
Description: For the novel object recognition task, mice are habituated to an empty apparatus, a 58×66×11-cm white plastic box, for 5 min a day for 3 consecutive days prior to entry of objects. On the first day of training, mice are placed in the testing apparatus with two identical objects (A and B). 24h later the animal is reintroduced to the arena but this time one of the original objects is removed and a new object (C). Total time spent exploring each of the two objects is recorded. Anxiety will be assessed using open field and elevated plus maze tests. The experimental apparatus consists of a central platform, two open arms and two equal-sized closed arms opposite to each other. The test consisted of placing a mouse in the central platform facing an enclosed arm and allowing it to freely explore the maze for 5 min. The number of entries into the open and closed arms and the time spent in open arms was measure by an observer blind to treatment
as §2, §3
A non-amnesic subject will spend more time exploring the novel object than the familiar one. When adropin treated and vehicle treated mice were subjected to the Novel Object Recognition test, adropin treated mice spent more time exploring the novel object (FIG. 11, Table 1)

[5] = test system: male C57BL/6J (B6) mice, aged 18 months; test: Aversive T-maze acquisition after exogenous adropin^34-76 treatment; type: in vivo, mouse
Description: as §1, §2, §3
Mice prepared with adropin or placebo in Example 3 were subjected to the Acquisition T-maze test.

mice [6] = test: Metabolic effects of administered adropin^34-76 in mice; type: in vivo, mouse
Excerpt: The inventors have engineered transgenic mice that over express adropin (“AdrTG”) in the nervous system and peripheral tissues. […] In addition, reduced JNK phosphorylation and expression of cytokines indicates reduced neuroinflammatory processes. Inflammation is also increasingly considered an important predisposing risk factor for age-related neurodegeneration (Irwin & Vitiello (2019) Lancet Neurol. 18(3):296-306; Madhavan et a., Nat Rev Cardiol. 15(12):744-756). […] In addition, the inventors have also shown that adropin levels may be increased systemically by […] administration. […] (Kumar et al. 2008; Gao et al. 2014, 2015)
Using mice, the Inventors have shown that administration of adropin^34-76, in doses as low as 90 nmol/kg/day, delivered as two 45 nmol/kg injections, can be effective in producing changes in metabolism. Dose as high as 900 nmol/kg/d are well tolerated in mice. While the doses required for a desired clinical effect in humans is expected to vary between patients, the 90 nmol/kg dose administered by subcutaneous, intramuscular, or intravenous injection, either once or twice a day, may represent a preferred treatment protocol. […] The optimum dose and frequency for a particular subject may be determined by the patient's treating physician, based on the patient's cognitive response. […]

mice [7] = test: Tolerability of adropin^34-76 doses in mice; type: in vivo, mouse
Excerpt: Using mice, the Inventors have shown that administration of adropin^34-76, in doses as low as 90 nmol/kg/day, delivered as two 45 nmol/kg injections, can be effective in producing changes in metabolism. Dose as high as 900 nmol/kg/d are well tolerated in mice. While the doses required for a desired clinical effect in humans is expected to vary between patients, the 90 nmol/kg dose administered by subcutaneous, intramuscular, or intravenous injection, either once or twice a day, may represent a preferred treatment protocol. It is anticipated that the treatments would be administered daily, although long-acting formulations involving weekly injections are envisaged. The optimum dose and frequency for a particular subject may be determined by the patient's treating physician, based on the patient's cognitive response. It is anticipated that adropin therapy may or may not improve a subject's cognitive function relative to current baseline, however adropin therapy may result in significant delays in the advancement of the disease. Improvement may manifest as a significant delay or a reduced rate of subsequent cognitive decline.

Adropin^34-76 (CHSRSADVDSLSESSPNSSPGPCPEKAPPPQKPSHEGSYLLQP; listed as Homo sapiens)
metabolic changes after intraperitoneal injection (in words) (mice [1]): metabolic changes suggesting improvements in glucose control and reduced risk for type 2 diabetes
T-maze Retention, Difference between means (Adropin vs. Vehicle) ([2]; 95% confidence interval −3.121 to −1.565): −2.343 ± 0.3792
T-maze Retention ([2]; individual mice, retested after 7 days, trials to five active avoidances in six consecutive trials, 90 nmol/kg/day intraperitoneal): 7. (7×) and 8. and 6. (5×) and 9.
T-maze Retention, Mean ± SEM ([2]; n = 14, P <0.0001 vs. Vehicle): 6.857 ± 0.2310,
performance in T-maze retention (in words) ([2]; retested after 7 days): superior performance
deaths during treatment [3]: One mouse in group 1 died
Novel Object Recognition % Novel Object, Difference between means (Adropin vs. Vehicle) ([4]; 95% confidence interval 2.733 to 27.24): 14.99 ± 5.982%
Novel Object Recognition test 24 Hour delay % Novel Object ([4]; individual mice, 90 nmol/kg/day intraperitoneal, 24 hour delay): 55.56% and 77.50% and 66.67% and 79.10% and 51.06% and 100.00% and 51.61% and 46.43% and 42.86% and 53.06% and 37.50% and 40.74% and 64.58% and 62.50% and 58.82%
Novel Object Recognition % Novel Object, Mean ± SEM ([4]; n = 15, 90 nmol/kg/day intraperitoneal, P 0.0183 vs. Vehicle): 58.88 ± 4.106, n = 15%
cognitive performance in Novel Object Recognition test (in words) ([4]; vs vehicle treated mice): improved cognitive performance
T-maze acquisition, Difference between means (Adropin vs. Vehicle) ([5]; 95% confidence interval −4.736 to −2.150): −3.443 ± 0.6301
T-maze acquisition ([5]; individual mice, number of trials to make one active avoidance, 90 nmol/kg/day intraperitoneal): 7. (5×) and 8. (4×) and 9. (2×) and 6. (3×)
T-maze acquisition, Mean ± SEM ([5]; n = 14, P <0.0001 vs. Vehicle): 7.357 ± 0.2695,
performance in Acquisition T-maze test (in words) ([5]; vs placebo treated mice): improved performance
dose known to affect metabolic control (mice [6]; male B6 mice, injection): about 450 nmol/kg
dose effective in producing changes in metabolism (mice [6]; mice, delivered as two 45 nmol/kg injections): ≥ 90 nmol/kg/day
well tolerated dose (mice [7]): ≤ 900 nmol/kg/day
